Assay results reported in patent US9005922B2, “Sensor chip for screening topoisomerase inhibitor and screening method thereof” (Taipei Medical University, priority 2010, dated 2015).

Legend:
[1] = target: T1, recombinant human topoisomerase I (hTop I) (Homo sapiens, UniProt P11387); test: Gel electrophoresis assay of pUC19 supercoiled DNA relaxation by hTop I; assay type: biochemical; settings: pUC19 plasmid DNA with hTop I, agarose gel, CPT 2-8 μM, FIG. 4 lanes 3-6
T1 construct: made in house
T1 sequence (P11387 1-765): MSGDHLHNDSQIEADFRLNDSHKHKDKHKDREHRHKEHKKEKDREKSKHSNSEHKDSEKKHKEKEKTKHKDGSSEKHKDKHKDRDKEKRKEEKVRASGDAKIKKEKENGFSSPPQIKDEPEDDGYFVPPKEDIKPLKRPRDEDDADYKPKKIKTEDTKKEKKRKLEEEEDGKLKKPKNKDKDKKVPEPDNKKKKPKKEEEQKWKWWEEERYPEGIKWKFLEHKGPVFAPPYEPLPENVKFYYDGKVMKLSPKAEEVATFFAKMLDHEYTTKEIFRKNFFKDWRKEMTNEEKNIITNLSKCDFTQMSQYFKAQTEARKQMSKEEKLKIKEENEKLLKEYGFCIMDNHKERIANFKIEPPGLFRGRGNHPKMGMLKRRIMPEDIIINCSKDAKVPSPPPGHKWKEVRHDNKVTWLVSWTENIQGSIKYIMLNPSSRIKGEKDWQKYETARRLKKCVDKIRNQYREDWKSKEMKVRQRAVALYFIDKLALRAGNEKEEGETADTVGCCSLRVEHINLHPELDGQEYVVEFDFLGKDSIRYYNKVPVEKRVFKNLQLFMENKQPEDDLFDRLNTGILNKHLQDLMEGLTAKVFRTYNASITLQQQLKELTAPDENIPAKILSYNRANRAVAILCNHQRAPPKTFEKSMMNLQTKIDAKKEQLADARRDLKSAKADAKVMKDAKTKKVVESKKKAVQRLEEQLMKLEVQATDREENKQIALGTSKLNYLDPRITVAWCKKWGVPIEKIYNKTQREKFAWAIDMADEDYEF
Text: The pUC19 plasmid DNA is closely circular double-stranded supercoiled DNA. When the pUC19 plasmid DNA is interacted with the Top I, one strand of the circular double-stranded supercoiled DNA is cleaved, separated and religated to form a relaxed form. A gel electrophoresis assay is used to evaluate the conformational change of pUC19 plasmid DNA.

immobilized hTop I = target: T2, immobilized hTop I (Homo sapiens, UniProt P11387); test: SPR assay on sensor chip with immobilized hTop I, inhibitor alone without DNA in analytes; assay type: binding; settings: CPT alone 0-250 nM, no DNA in analytes, FIG. 8
T2 construct: made in house
T2 sequence (P11387 1-765): T1 sequence (P11387 1-765)
Procedure: (§1) Briefly, the surface of the micro-fluid chip is activated with 0.05-0.5 M N-hydroxysuccinimide and 0.1-0.5 M N-ethyl-N′-(3-dimethylaminopropyl) carbodiimimide at a flow rate of 25 μL/min. The hTop I is diluted in 10 mM sodium acetate and adjusted pH values to pH 3.0-10.0, preferably to pH 5.0-8.5, especially to pH 7.5. The hTop I is immobilized on the micro-fluid chip at 20-40[…] (preferably at 25[…]) using a flow rate of 10-40 μL/min (preferably 25-30 μL/min, specially 25 μL/min) for 60-300 seconds (preferably 200-300 seconds), and therefore the contents of the hTop I are about 20-150 μL. Activated amine groups are quenched with injecting 1 M ethanolamine (pH 7.0-9.0). Recombinant hTop I was covalently coupled to the carboxymethylated dextran surface of the chip using standard amine-coupling chemistry.
[…] […] The interaction causes an increase in the higher the mass of ligands immobilized on the micro-fluid chip, and is reflected in a rise in RUs.

[2] = target: T3, hTopI-DNA cleavage complex (Homo sapiens, UniProt P11387); test: SPR assay on sensor chip with immobilized hTop I, inhibitor together with pUC19 plasmid DNA in analytes; assay type: binding
T3 construct: made in house
T3 sequence (P11387 1-765): T1 sequence (P11387 1-765)
Procedure: as §1
To characterize the drug-binding kinetics using the SPR sensor chip, plasmid DNA (1.0 μg/ml) is included in the analytes. […] The interaction causes an increase in the higher the mass of ligands immobilized on the micro-fluid chip, and is reflected in a rise in RUs.

[3] = pUC19 plasmid DNA 1.0 μg/ml plus CPT, compared to DNA only, ProteOn Manager 2.0 calculation

Row | binding to hTop I immobilized on the micro-fluid chip ([2]; VP-16 and pUC19 plasmid DNA loaded simultaneously) | Compound | inhibitory effect on hTop I relaxation activity (supercoiled DNA retained) [1] | binding to hTop I (RU values) (immobilized hTop I) | RU response (binding) ([2]; pUC19 plasmid DNA 1.0 μg/ml plus CPT 0, 62.5, 125 and 250 nM, FIG. 9) | Ka [2, 3] | Kd [2, 3]
1 | – | CC[C@@]1(O)C(=O)OCc2c1cc1n(c2=O)Cc2cc3ccccc3nc2-1 [CPT, camptothecin] | inhibited hTop I relaxation activity | does not bind to hTopI without DNA | RU increases in a concentration-dependent manner | 9.11×10^7 | 3.74×10^−21
2 | does not bind to the hTop I | COc1cc([C@@H]2c3cc4c(cc3[C@@H](O[C@@H]3O[C@@H]5CO[C@@H](C)O[C@H]5[C@H](O)[C@H]3O)[C@H]3COC(=O)[C@H]23)OCO4)cc(OC)c1O [VP-16, etoposide] | – | – | – | – | –
